These results are taken from PubChem BioAssay AID1159568 (Broad Institute, 2015).

Records with an inconclusive call do not appear. Active and inactive are the calls of the source.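 Rule for the calls: active = signal loss with an EC50 at or below twice the highest valid dose for that sample; inconclusive = flat curve with 30 to 70% inhibition, or poor fit; inactive = the rest.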

This assay relates to P. falciparum Dd2 in erythrocytes, SYBR Green growth, 72 h. Briefly: Dd2 parasite growth inhibition in erythrocytes – SYBR Green, dry powder samples, set 9, dose response (AID 1159568).

Take `O=C(C[C@H]1C[C@H]2c3cc(NC(=O)c4ccc5c(c4)OCO5)ccc3O[C@H]2[C@H](CO)O1)NCc1ccc(Oc2ccccc2)cc1`: the EC50 (commonly the midpoint of the concentration-response curve) was > 39 µM (inactive).
